Tests used:
Test in all cases: biochemical
Assay type in all cases: biochemical
[1] = target: T1, 382 unique human kinases (Homo sapiens, UniProt P07949, V804L); details: RET (V804L), 10 uM; for remaining activity at 10 µM: read-out: % Enzyme Activity (relative to DMSO controls)
T1 construct: purchased Reaction Biology (HotSpot contract assay)

[2] = target: T2, 382 unique human kinases (Homo sapiens, UniProt P24723); details: PKCeta, 10 uM; for remaining activity at 10 µM: read-out: % Enzyme Activity (relative to DMSO controls)
T2 construct: purchased Reaction Biology (HotSpot contract assay)

[3] = target: T3, 382 unique human kinases (Homo sapiens, UniProt P25098); details: GRK2, compound at 10 uM, duplicate values; for remaining activity at 10 µM: read-out: % Enzyme Activity (relative to DMSO controls)
T3 construct: purchased Reaction Biology (HotSpot contract assay)
T3 sequence (P25098 1-689): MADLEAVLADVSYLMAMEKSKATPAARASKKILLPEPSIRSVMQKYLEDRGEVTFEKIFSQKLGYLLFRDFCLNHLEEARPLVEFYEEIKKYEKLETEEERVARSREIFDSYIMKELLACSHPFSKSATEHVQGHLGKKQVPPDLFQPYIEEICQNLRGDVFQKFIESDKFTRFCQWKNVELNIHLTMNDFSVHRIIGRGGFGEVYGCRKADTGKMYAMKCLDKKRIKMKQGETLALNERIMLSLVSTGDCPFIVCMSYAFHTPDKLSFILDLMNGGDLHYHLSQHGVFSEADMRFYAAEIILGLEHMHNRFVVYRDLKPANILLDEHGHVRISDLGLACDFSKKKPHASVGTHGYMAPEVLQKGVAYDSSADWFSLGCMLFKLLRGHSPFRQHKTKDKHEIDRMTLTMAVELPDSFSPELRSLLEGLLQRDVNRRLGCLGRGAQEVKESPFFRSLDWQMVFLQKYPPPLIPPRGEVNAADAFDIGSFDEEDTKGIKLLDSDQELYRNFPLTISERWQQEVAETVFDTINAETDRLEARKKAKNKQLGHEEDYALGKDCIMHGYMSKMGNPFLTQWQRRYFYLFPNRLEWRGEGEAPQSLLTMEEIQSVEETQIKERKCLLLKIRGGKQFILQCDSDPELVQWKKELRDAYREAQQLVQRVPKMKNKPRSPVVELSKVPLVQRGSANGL

[4] = target: T4, 382 unique human kinases (Homo sapiens, UniProt Q02156); details: kinase PKCepsilon, compound 10 uM; for remaining activity at 10 µM: read-out: % Enzyme Activity (relative to DMSO controls)
T4 construct: purchased Reaction Biology (HotSpot contract assay)
T4 sequence (Q02156 1-737): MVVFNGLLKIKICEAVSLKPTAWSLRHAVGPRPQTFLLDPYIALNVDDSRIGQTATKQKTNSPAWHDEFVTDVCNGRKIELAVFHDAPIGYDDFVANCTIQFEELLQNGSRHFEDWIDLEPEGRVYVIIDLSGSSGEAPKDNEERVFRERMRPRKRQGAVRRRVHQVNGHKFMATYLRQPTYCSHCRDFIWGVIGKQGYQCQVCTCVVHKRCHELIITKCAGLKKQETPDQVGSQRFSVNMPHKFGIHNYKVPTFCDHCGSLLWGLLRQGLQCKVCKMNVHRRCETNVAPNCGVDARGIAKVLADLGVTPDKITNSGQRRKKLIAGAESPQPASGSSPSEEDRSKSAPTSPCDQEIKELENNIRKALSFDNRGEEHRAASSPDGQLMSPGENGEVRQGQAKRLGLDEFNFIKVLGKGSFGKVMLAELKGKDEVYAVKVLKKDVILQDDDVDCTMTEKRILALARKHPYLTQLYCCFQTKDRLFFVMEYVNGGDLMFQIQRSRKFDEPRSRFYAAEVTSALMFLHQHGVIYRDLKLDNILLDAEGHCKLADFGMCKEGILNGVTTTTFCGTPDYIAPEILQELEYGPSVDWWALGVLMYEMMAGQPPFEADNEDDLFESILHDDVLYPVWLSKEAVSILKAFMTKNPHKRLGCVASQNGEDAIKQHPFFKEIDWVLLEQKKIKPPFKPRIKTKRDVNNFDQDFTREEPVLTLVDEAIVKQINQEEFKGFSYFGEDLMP

[5] = target: T5, 382 unique human kinases (Homo sapiens, UniProt Q13470); details: TNK1, 10 uM; for remaining activity at 10 µM: read-out: % Enzyme Activity (relative to DMSO controls)
T5 construct: purchased Reaction Biology (HotSpot contract assay)
T5 sequence (Q13470 1-666): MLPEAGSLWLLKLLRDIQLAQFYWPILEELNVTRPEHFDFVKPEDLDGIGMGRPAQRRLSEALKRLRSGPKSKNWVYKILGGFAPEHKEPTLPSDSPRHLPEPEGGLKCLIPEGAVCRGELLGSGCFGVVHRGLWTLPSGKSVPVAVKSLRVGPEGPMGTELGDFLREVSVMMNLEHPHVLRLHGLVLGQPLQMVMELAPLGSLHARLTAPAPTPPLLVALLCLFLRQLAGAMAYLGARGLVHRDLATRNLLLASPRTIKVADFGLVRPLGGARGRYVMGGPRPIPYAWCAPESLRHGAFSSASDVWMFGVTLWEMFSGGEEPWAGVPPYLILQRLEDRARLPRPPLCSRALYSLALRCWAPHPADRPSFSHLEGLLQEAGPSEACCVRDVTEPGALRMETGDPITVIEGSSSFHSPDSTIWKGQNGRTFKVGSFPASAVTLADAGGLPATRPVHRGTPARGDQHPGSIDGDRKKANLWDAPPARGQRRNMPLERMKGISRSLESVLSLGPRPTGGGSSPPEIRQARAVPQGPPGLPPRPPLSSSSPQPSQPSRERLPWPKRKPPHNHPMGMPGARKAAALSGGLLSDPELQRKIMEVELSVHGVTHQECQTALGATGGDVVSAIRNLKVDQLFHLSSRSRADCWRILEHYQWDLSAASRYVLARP

[6] = target: T6, 382 unique human kinases (Homo sapiens, UniProt Q15759); details: kinase P38b/MAPK11, compound 10 uM; for remaining activity at 10 µM: read-out: % Enzyme Activity (relative to DMSO controls)
T6 construct: purchased Reaction Biology (HotSpot contract assay)

[7] = target: T7, 382 unique human kinases (Homo sapiens, UniProt P00519, E255K); details: ABL1 (E255K), [ATP] 5 µM, compound 10 uM; for remaining activity at 10 µM: read-out: % Enzyme Activity (relative to DMSO controls)
T7 construct: purchased Reaction Biology (HotSpot contract assay)

[8] = target: T8, 382 unique human kinases (Homo sapiens, UniProt P07949, G691S); details: RET (G691S), 10 uM; for remaining activity at 10 µM: read-out: % Enzyme Activity (relative to DMSO controls)
T8 construct: purchased Reaction Biology (HotSpot contract assay)

[9] = target: T9, 382 unique human kinases (Homo sapiens, UniProt P08581, Y1230A); details: c-MET (Y1230A), 10 uM; for remaining activity at 10 µM: read-out: % Enzyme Activity (relative to DMSO controls)
T9 construct: purchased Reaction Biology (HotSpot contract assay)

[10] = target: T10, 382 unique human kinases (Homo sapiens, UniProt Q05655); details: PKCd, 10 uM; for remaining activity at 10 µM: read-out: % Enzyme Activity (relative to DMSO controls)
T10 construct: purchased Reaction Biology (HotSpot contract assay)

[11] = target: T11, 382 unique human kinases (Homo sapiens, UniProt Q9H2X6); details: HIPK2, 10 uM; for remaining activity at 10 µM: read-out: % Enzyme Activity (relative to DMSO controls)
T11 construct: purchased Reaction Biology (HotSpot contract assay)
T11 sequence (Q9H2X6 whole entry): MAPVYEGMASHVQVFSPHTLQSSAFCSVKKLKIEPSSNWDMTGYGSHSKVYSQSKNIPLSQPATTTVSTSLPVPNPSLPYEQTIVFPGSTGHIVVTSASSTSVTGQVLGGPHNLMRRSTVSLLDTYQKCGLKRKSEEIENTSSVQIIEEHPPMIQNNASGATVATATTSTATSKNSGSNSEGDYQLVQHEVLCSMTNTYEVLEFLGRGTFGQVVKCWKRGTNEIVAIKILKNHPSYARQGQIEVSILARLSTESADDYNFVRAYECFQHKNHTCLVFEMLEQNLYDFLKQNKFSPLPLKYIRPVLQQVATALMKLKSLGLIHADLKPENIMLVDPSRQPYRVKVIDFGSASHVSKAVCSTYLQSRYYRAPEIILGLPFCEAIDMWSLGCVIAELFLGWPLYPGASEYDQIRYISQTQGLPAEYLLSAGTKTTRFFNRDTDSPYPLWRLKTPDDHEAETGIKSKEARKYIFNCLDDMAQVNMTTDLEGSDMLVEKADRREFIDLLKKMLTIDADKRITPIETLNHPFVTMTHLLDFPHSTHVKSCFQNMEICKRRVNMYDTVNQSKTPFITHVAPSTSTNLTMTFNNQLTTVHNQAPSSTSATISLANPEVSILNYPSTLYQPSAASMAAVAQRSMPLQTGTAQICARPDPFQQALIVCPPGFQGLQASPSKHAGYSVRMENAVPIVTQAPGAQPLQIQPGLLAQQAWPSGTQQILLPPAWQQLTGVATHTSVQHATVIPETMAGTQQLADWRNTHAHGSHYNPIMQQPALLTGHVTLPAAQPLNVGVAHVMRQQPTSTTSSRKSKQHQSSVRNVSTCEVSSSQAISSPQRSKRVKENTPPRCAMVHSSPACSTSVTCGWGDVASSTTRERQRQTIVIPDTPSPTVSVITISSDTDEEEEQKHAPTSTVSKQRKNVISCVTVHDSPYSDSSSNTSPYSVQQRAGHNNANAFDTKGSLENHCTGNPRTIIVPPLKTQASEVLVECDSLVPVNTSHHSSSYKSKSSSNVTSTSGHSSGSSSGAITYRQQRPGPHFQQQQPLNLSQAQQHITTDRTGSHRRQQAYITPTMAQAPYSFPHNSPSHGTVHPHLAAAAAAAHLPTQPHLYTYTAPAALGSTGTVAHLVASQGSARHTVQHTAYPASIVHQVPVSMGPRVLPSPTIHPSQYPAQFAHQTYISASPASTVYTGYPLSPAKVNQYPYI

T10 sequence (Q05655 whole entry): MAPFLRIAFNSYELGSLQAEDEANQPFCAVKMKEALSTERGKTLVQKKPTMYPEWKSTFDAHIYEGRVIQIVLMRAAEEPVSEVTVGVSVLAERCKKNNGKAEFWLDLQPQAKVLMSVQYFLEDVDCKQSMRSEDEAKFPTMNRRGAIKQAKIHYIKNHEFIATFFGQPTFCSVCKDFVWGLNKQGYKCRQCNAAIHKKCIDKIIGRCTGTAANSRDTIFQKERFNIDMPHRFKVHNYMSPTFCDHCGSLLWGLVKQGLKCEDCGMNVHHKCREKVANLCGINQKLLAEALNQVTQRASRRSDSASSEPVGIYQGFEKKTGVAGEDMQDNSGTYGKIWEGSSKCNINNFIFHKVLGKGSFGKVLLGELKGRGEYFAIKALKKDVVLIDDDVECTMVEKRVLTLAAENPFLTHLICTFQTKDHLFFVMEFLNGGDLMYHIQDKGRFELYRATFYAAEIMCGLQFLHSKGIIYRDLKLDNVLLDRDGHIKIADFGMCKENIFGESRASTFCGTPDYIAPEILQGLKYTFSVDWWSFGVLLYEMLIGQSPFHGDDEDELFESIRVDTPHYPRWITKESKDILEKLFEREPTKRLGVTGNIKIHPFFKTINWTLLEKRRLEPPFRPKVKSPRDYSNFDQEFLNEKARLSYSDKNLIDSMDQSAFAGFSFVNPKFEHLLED
T2 sequence (P24723 whole entry): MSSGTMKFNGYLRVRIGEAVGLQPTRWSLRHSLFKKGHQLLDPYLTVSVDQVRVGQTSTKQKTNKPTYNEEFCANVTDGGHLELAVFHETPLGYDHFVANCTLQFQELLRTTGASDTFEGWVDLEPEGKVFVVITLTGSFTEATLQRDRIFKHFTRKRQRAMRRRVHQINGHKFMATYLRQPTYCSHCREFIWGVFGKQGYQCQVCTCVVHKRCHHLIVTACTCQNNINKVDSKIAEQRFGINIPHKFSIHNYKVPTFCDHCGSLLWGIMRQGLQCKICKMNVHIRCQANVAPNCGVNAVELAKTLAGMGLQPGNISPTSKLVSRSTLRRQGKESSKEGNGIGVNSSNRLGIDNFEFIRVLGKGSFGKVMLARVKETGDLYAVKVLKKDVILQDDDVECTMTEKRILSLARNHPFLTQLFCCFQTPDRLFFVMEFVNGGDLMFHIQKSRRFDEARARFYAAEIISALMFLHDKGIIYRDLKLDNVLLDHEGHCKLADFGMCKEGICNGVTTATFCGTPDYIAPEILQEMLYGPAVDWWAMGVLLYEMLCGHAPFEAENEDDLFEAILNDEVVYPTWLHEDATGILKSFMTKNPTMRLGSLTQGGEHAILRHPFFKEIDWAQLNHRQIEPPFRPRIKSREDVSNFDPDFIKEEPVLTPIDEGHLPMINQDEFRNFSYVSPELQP
T7 sequence (P00519 whole entry E255K): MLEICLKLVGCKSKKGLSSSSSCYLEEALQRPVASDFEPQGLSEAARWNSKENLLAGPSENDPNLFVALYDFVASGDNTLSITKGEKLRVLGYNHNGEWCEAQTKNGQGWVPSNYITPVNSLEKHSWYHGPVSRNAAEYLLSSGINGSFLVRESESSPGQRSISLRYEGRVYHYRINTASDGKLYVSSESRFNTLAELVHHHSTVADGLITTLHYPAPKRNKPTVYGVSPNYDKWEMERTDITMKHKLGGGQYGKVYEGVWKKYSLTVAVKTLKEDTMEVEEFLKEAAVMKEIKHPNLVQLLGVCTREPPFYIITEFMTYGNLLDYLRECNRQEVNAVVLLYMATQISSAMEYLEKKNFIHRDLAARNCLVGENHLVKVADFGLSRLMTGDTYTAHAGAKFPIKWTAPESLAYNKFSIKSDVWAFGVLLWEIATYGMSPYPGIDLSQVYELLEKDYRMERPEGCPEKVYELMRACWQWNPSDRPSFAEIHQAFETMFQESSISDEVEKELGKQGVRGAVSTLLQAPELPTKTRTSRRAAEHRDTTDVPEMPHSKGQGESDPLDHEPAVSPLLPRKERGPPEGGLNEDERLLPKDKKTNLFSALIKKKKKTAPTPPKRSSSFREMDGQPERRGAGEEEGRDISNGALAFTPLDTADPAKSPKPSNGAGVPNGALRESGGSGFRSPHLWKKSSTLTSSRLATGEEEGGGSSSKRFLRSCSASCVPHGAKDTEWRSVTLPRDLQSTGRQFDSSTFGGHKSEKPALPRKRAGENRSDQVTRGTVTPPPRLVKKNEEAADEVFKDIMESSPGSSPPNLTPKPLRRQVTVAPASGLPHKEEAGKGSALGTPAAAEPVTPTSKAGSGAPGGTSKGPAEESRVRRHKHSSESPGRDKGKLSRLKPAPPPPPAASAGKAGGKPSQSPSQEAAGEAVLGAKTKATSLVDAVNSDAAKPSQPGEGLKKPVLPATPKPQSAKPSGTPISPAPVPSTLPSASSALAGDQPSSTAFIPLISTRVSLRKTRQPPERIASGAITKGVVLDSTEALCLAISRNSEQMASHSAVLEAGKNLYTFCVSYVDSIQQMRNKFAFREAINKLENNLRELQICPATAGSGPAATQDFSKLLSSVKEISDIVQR
T1 sequence (P07949 29-1114 V804L): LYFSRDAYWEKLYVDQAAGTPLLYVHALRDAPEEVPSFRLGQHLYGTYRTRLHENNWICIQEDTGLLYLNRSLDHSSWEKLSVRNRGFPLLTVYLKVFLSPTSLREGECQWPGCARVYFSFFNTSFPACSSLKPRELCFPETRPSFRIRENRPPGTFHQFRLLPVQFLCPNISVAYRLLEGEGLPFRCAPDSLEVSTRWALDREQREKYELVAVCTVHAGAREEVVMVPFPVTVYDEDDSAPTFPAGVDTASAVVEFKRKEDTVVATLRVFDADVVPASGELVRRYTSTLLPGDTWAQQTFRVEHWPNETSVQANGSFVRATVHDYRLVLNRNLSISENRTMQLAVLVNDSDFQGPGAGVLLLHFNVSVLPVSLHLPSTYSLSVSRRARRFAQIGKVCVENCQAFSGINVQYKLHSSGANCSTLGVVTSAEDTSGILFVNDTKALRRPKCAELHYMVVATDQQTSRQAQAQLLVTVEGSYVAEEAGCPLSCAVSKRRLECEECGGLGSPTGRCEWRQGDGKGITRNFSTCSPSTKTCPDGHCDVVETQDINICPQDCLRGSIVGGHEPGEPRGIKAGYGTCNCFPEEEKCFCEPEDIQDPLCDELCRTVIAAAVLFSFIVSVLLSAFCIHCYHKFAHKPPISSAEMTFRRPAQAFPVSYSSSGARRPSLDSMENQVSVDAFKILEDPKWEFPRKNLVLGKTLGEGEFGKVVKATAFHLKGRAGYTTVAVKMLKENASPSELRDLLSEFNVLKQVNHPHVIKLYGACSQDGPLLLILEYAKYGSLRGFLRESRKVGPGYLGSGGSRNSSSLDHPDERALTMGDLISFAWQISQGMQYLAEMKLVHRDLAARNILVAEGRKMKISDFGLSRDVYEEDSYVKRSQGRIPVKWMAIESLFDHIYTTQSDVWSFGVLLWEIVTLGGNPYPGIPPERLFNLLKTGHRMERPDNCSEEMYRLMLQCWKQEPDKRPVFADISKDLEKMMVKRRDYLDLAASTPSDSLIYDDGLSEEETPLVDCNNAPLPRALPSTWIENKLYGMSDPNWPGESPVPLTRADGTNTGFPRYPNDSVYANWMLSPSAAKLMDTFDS
T8 sequence (P07949 29-1114 G691S): as the sequence (P07949 29-1114 V804L) above, with G663S, L776V counted along it

## CC(C)c1cc(-c2n[nH]c(=O)n2-c2ccc3c(ccn3C)c2)c(O)cc1O [Ganetespib (STA9090)]
[1]
  remaining activity at 10 µM: 78.5%
[2]
  remaining activity at 10 µM: 75.8%
[3]
  remaining activity at 10 µM: 104%
[4]
  remaining activity at 10 µM: 87%
[5]
  remaining activity at 10 µM: 65.8%
[6]
  remaining activity at 10 µM: 108%

## CCNC(=O)c1noc(-c2cc(C(C)C)c(O)cc2O)c1-c1ccc(CN2CCOCC2)cc1 [Luminespib]
[7]
  % Enzyme Activity (relative to DMSO controls): 14.20%
  remaining activity at 10 µM: 14.7%
[8]
  % Enzyme Activity (relative to DMSO controls): 100.12%
  remaining activity at 10 µM: 101%
[9]
  % Enzyme Activity (relative to DMSO controls): 98.90%
  remaining activity at 10 µM: 101%
[10]
  % Enzyme Activity (relative to DMSO controls): 95.84%
  remaining activity at 10 µM: 96.4%
[11]
  % Enzyme Activity (relative to DMSO controls): 103.59%
  remaining activity at 10 µM: 105%

## CCNC(=O)c1noc(-c2cc(C(C)C)c(O)cc2O)c1-c1ccc(CN2CCOCC2)cc1 [Luminespib (AUY-922)]
[1]
  % Enzyme Activity (relative to DMSO controls): 104.44%
  remaining activity at 10 µM: 106%
[2]
  % Enzyme Activity (relative to DMSO controls): 105.31%
  remaining activity at 10 µM: 106%
[3]
  % Enzyme Activity (relative to DMSO controls): 104.97%
  remaining activity at 10 µM: 106%
[4]
  % Enzyme Activity (relative to DMSO controls): 103.78%
  remaining activity at 10 µM: 107%
[5]
  % Enzyme Activity (relative to DMSO controls): 96.12%
  remaining activity at 10 µM: 97.5%
[6]
  % Enzyme Activity (relative to DMSO controls): 82.81%
  remaining activity at 10 µM: 86.3%

## CC(C)c1cc(-c2n[nH]c(=O)n2-c2ccc3c(ccn3C)c2)c(O)cc1O [Ganetespib]
[7]
  remaining activity at 10 µM: 4.77%
[8]
  remaining activity at 10 µM: 98.6%
[9]
  remaining activity at 10 µM: 117%
[10]
  remaining activity at 10 µM: 92%
[11]
  remaining activity at 10 µM: 101%

Source: article PMC8550792, “Evolution of kinase polypharmacology across HSP90 drug discovery” (Cell Chemical Biology, 2021)
